Drawing on the METLIN SMRT retention time set (Domingo-Almenara et al. 2019), this text covers RP-LC retention time for 81 compounds.

The data set in a line: gradient 5% acetonitrile 3 min, to 50% in 2 min, to 85% in 15 min, held 3 min, 100 µL/min. The conditions noted are these: column: Zorbax Extend-C18 2.1 x 50 mm; eluents: water / acetonitrile, 0.1% formic acid. The gist of the method: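 Data were gathered over 3 months by HPLC coupled to a quadrupole time-of-flight mass spectrometer, operated in positive and negative ionization mode. Mixtures of ~100 pure standards ran on a Zorbax Extend-C18 column (2.1 × 50 mm, 1.8 μm) at 100 μL/min, with water and acetonitrile each containing 0.1% formic acid and dead and dwell volumes of 40 μL and 900 μL. Retention time was read from adduct peaks picked by computer and checked manually.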
With `Cc1ccc(NC(=O)CN2C(=O)CCCc3cc(S(=O)(=O)N4CCCCC4)ccc32)cc1`, the RP-LC retention time worked out at 845 s.

As for `N#Cc1cnc2ccc(Cl)cc2c1N1CCC(C(=O)Nc2cccc(C(F)(F)F)c2)CC1`, the RP-LC retention time was found to be 1120 s.

In the case of `O=C(c1ccco1)N1CCc2nc(OCC3CC3)ccc2C1`, the RP-LC retention time was 821 s.

`O=C(NCC1CCCO1)c1cn(-c2cc(N3CCSCC3)ncn2)cn1` (stereo unspecified) had an RP-LC retention time of 717 s.

The compound `COCc1cc(=O)n(Cc2ccccc2C#N)c(N2CCCC2)n1` came in with an RP-LC retention time of 744 s.

In turn, `Cc1cc(C)n(-c2ccnc(N3CCN(CC(=O)NC(C)C)CC3)n2)n1` showed an RP-LC retention time of 624 s.

`CCN1CCN(c2ccc(NC(=O)c3cc(Cl)ccc3F)cn2)C1=O`: the RP-LC retention time was found to be 747 s.

`CCCN(Cc1cccs1)C(=O)Nc1cc(OC)c(OC)c(OC)c1` gave an RP-LC retention time of 875 s.

Compound `O=S(=O)(c1ccc2nc(N3CCN(c4cccc(Cl)c4)CC3)ccc2c1)N1CCCC1` came in with an RP-LC retention time of 1100 s.

The compound `Cc1ccnc(NC(=O)C2CCN(S(=O)(=O)c3cc(C(=O)N4CCOCC4)cs3)CC2)c1` came in with an RP-LC retention time of 614 s.

`CCCCCCC(C)OC(=O)c1ccccc1C(=O)O` (stereo unspecified) showed an RP-LC retention time of 1130 s.

`CSc1cccc(NC(=O)N2CCC(c3cc(=O)n4nccc4n3C)CC2)c1` came in with an RP-LC retention time of 679 s.

Regarding `COc1cc(C(=O)C(=O)c2ccc(O)c(OC)c2)ccc1O`, the RP-LC retention time was 758 s.

`O=C(Nc1cccc([N+](=O)[O-])c1)C(=O)N1CCN(c2cccc(Cl)c2)CC1` yielded an RP-LC retention time of 950 s.

As to `CCn1ncn2cc(S(=O)(=O)Nc3cc(C)ccc3C)cc2c1=O`, the RP-LC retention time was found to be 937 s.

On to `O=C(CSc1ncccc1-c1noc(C2CCC2)n1)N1CCCCC1`, for which the RP-LC retention time is 979 s.

Regarding `CCc1cccc(NC(=O)C2(C)CCCCC(=O)N2)c1` (stereo unspecified), the RP-LC retention time was 753 s.

Compound `Cc1c(C(=O)NC2CC2)cnn1-c1cc(-c2nc(C(C)C)no2)ccn1` showed an RP-LC retention time of 940 s.

On to `COc1ccc(NC(=O)C2(CCO)CCN(c3ncccn3)C2)cn1` (stereo unspecified), for which the RP-LC retention time was found to be 706 s.

`O=C(Cn1c(=O)oc2ccccc21)NCC12CCCC=C1NC(=O)CC2` (stereo unspecified) returned an RP-LC retention time of 678 s.

Consider `CO[C@@H]1C=C2CCN(C)[C@@H]2C2c3cc4c(cc3C(=O)O[C@@H]21)OCO4` (stereo partly specified), for which the RP-LC retention time stood at 604 s.

The compound `Cc1ccccc1-c1nc(C2CCN(S(=O)(=O)c3ccc4c(c3)CCCC4)CC2)no1` showed an RP-LC retention time of 1380 s.

In turn, `CC1(C(=O)NC2CC2)CC(c2ccccc2)=NO1` (stereo unspecified) returned an RP-LC retention time of 749 s.

`CCN1CCC2(CC1)CN(Cc1cccc(Cl)c1)Cc1ccccc1O2` gave an RP-LC retention time of 585 s.

For the compound `CCC(=O)N1CCC2(C1)C(=O)N(C)c1ccc(OC)cc12` (stereo unspecified), the RP-LC retention time was determined as 652 s.

Take `COC(=O)c1cn(C(=O)c2ccccc2)c2ccccc12`: the RP-LC retention time was found to be 1090 s.

Compound `COc1ccc(-c2noc(-c3cccn(CC(=O)Nc4cccc(SC)c4)c3=O)n2)cc1OC` returned an RP-LC retention time of 853 s.

As for `O=C(CCc1nc2ccccc2n(CC(=O)Nc2cc(F)ccc2F)c1=O)NCc1ccccc1`, the RP-LC retention time came to 884 s.

The compound `Cn1c(=O)n(C)c2cc(S(=O)(=O)c3ccc(F)cc3)c(NC(=O)c3cccc(F)c3)cc21` had an RP-LC retention time of 896 s.

`Cc1ccc(C)c(S(=O)(=O)NCCn2c(C)cnc2C2CCC2)c1` returned an RP-LC retention time of 656 s.

For `CC(C)c1nc2c(c(=O)n1CC(=O)NCc1ccc(F)cc1)CCN(Cc1ccccc1)C2`, the RP-LC retention time came out at 683 s.

On to `CSc1cccc(NC(=O)CC2COc3ccccc3NC2=O)c1` (stereo unspecified), for which the RP-LC retention time amounted to 742 s.

Turning to `Cc1cc2c(cc1S(=O)(=O)N1CCCC1C(=O)NCCCc1ccccc1)OC(C)C(=O)N2` (stereo unspecified), the RP-LC retention time is 822 s.

Consider `O=C(Nc1ccccc1-c1nc2ccccc2[nH]1)c1ccccc1Cl`, for which the RP-LC retention time came out at 871 s.

Compound `O=C([C@@H]1C[C@H](F)CN1C(=O)NCCc1ccccc1)N1CCOCC1` registered an RP-LC retention time of 608 s.

`COCc1nncn1C1CCN(S(=O)(=O)c2cccc(Cl)c2)CC1` returned an RP-LC retention time of 738 s.

`CCOC(=O)/C(C#N)=C\c1c[nH]c2ccccc12` yielded an RP-LC retention time of 649 s.

Take `CCC(=O)Nc1ccc(-n2cnc(C(=O)NCc3ccc(F)cc3Cl)c2)nc1`: the RP-LC retention time is 762 s.

The compound `CC(C)(C)CC(=O)NCCn1c(=O)n(Cc2ccccc2)c2cccnc21` showed an RP-LC retention time of 786 s.

Take `CCc1ccc(CNC(=O)C2CCCN(C(=O)c3[nH]c(C)c(C(=O)OC(C)C)c3C)C2)cc1` (stereo unspecified): the RP-LC retention time amounted to 959 s.

Compound `O=C(NC1CCCCCCC1)C1CCCN(c2nc3ccccc3n(Cc3ccccc3)c2=O)C1` (stereo unspecified) showed an RP-LC retention time of 1370 s.

`CCOc1ccccc1NS(=O)(=O)c1cc2c3c(c1)CCC(=O)N3CCC2` gave an RP-LC retention time of 548 s.

For `Cc1ccc(N2C=NS(=O)(=O)c3cccnc32)cc1C`, the RP-LC retention time was 840 s.

On to `CCc1nc2cc(-c3noc(-c4ccccc4Br)n3)ccc2o1`, for which the RP-LC retention time turned out to be 1260 s.

For the compound `O=C(Nc1nccs1)c1ccc(Br)cc1F`, the RP-LC retention time came to 783 s.

Turning to `O=S(=O)(c1ccccc1)N1CCC(CCOc2ccccc2)C1` (stereo unspecified), the RP-LC retention time stood at 754 s.

In the case of `CCOC(=O)Cc1csc(NC(=O)CSc2nnc(-c3ccncc3)o2)n1`, the RP-LC retention time was 632 s.

`CN1CCCn2cc(S(=O)(=O)Nc3ccc(F)cc3Cl)cc2C1=O` registered an RP-LC retention time of 696 s.

With `CC(C)CCNC(=O)C1CCN(c2cncnc2N2CCCCC2)CC1`, the RP-LC retention time came out at 674 s.

The compound `Cc1cccc2c(=O)n(C3CCN(S(=O)(=O)c4cc(F)cc(F)c4)CC3)cnc12` came in with an RP-LC retention time of 1000 s.

In turn, `Cc1ccc(N2CC(c3noc(-c4cc(F)ccc4F)n3)CC2=O)cc1` (stereo unspecified) yielded an RP-LC retention time of 1000 s.

`Cn1c(=O)oc2cc(-c3noc(-c4ccccc4Br)n3)ccc21` had an RP-LC retention time of 1070 s.

`CCC(CC)C(=O)N1CCCC(Cn2c(C3CC3)nc3cccnc32)C1` (stereo unspecified) came in with an RP-LC retention time of 682 s.

For the compound `CCc1nc(-c2c(C)cc(C)nc2NC(=O)c2ccc(C)c(F)c2)no1`, the RP-LC retention time was 883 s.

In the case of `O=C(c1ccc2c(c1)CCN2C(=O)C1CCC1)N1CCCC1`, the RP-LC retention time came to 589 s.

In turn, `COCCn1cc2c3c(cccc31)CN(C(=O)c1ccc(Cl)cc1)CC2` registered an RP-LC retention time of 1000 s.

Consider `N#Cc1cnc(-c2ccc(F)cc2)n(CC(=O)Nc2ccc(C(F)(F)F)cc2)c1=O`, for which the RP-LC retention time was 1040 s.

Compound `CCOC(=O)CCC(=O)Nc1cccc2ccc(-n3ccnc3)nc12` showed an RP-LC retention time of 586 s.

`Fc1cccc(Cc2nc(-c3cccc(-c4ccn[nH]4)c3)no2)c1` gave an RP-LC retention time of 915 s.

With `COc1ccc2c(c1)-c1nc(NC(=O)c3ccccc3Cl)sc1CC2`, the RP-LC retention time came out at 1110 s.

`COc1cccc(CNC(=O)Nc2c(-c3ccc(C)cc3)nc3ccccn23)c1` came in with an RP-LC retention time of 658 s.

In turn, `Cc1c(C)n(-c2ccc(Cl)cc2)c2ncn(CC(=O)N3CCCC3)c(=O)c12` gave an RP-LC retention time of 803 s.

`CCOC(=O)Cc1ccc(NC(=O)N2CCN(CC)c3ncccc32)cc1` displayed an RP-LC retention time of 641 s.

`CN1CCCn2cc(S(=O)(=O)Nc3ccc(F)c(F)c3)cc2C1=O` returned an RP-LC retention time of 690 s.

Take `COc1ccccc1OCC(=O)Nc1ccc2c(c1)Sc1ncccc1C(=O)N2C(C)C`: the RP-LC retention time stood at 883 s.

Compound `Cc1cc(N2CCOCC2)n2nc(CN3CCC(Cc4ccccc4)CC3)nc2n1` showed an RP-LC retention time of 641 s.

`CCC(=O)N1CCc2cc(-c3ccc(C(=O)NCCN4CCN(CC)CC4)cc3)ccc21` had an RP-LC retention time of 604 s.

Consider `Cc1nc(-c2cc(S(=O)(=O)N(C)C3CCCCC3)cn2C)sc1C(=O)N1CCCC1`, for which the RP-LC retention time worked out at 959 s.

`O=C(Cc1csc(NC(=O)NC2CCCCC2)n1)NCc1ccco1` yielded an RP-LC retention time of 695 s.

On to `COc1ccccc1N1CCN(S(=O)(=O)CCNC(=O)CCCc2ccccc2)CC1`, for which the RP-LC retention time came to 832 s.

The compound `COc1ccccc1NC(=O)Nc1ccc2nc3n(c(=O)c2c1)CCC3` showed an RP-LC retention time of 698 s.

`Cc1cc(C(=O)NCc2ccco2)c2c(=O)n(C)c(=O)n(C)c2n1`: the RP-LC retention time is 663 s.

Regarding `COCc1cc2nn(CC(=O)Nc3ccc(C)cc3F)c(=O)n2c(-c2ccccc2)n1`, the RP-LC retention time came to 858 s.

Compound `CN(C)C(=O)c1cc2c(s1)CCC(C(=O)NCCc1ccccc1)C2` (stereo unspecified) returned an RP-LC retention time of 710 s.

`CCC(C)NC(=O)c1ccc2c(c1)CCCN2S(C)(=O)=O` (stereo unspecified) had an RP-LC retention time of 754 s.

Take `Cc1ccc(-c2nc(-c3ccc(-c4noc(CNC(=O)Cc5ccccc5)n4)cc3)cs2)s1`: the RP-LC retention time is 1200 s.

As to `O=C(C1CCCC1)N1[C@H]2CC[C@@H]1c1cnc(-c3ccc(F)cc3)nc1C2`, the RP-LC retention time amounted to 984 s.

`COc1ccc(Cc2nc(-c3ccc4c(c3)ncn4CCC(=O)N3CCCC3)no2)cc1` yielded an RP-LC retention time of 716 s.

Compound `Cc1ccc2nc(NC3=NCN(CCO)CN3)nc(C)c2c1` registered an RP-LC retention time of 593 s.

On to `CC1CCN(S(=O)(=O)c2ccc3nc(N4CCN(c5ccccc5)CC4)ccc3c2)CC1`, for which the RP-LC retention time stood at 962 s.

In turn, `CCCn1cc(S(=O)(=O)Nc2ccc(C)cc2F)c2cccnc21` returned an RP-LC retention time of 936 s.
